# How the values were obtained:
# Format in all cases: functional
# Eleusine coracana [1] = assay: Phytostimulatory activity in Eleusine coracana (finger mellet) seedlings assessed as vigour index at 40 g/L (reference value: 567 +/- 0.5 no unit)
# Pyricularia grisea [2] = assay: Antifungal activity against Magnaporthe grisea infected finger millet seed assessed as fungal occurrence at 1 g/L after 1 week by stereoscopic analysis (reference value: 12.5 +/- 0.35%)
# Eleusine coracana [3] = assay: Induction of seed germination in Eleusine coracana (finger mellet) at 20 g/L (reference value: 81 +/- 0.40%)
# Eleusine coracana [4] = assay: Induction of seed germination in Eleusine coracana (finger mellet) at 10 g/L (reference value: 81 +/- 0.40%)
# Pyricularia grisea [5] = assay: Antifungal activity against Magnaporthe grisea infected finger millet seed assessed as fungal occurrence at 10 g/L after 1 week by stereoscopic analysis (reference value: 12.5 +/- 0.35%)
# Bipolaris setariae [6] = assay: Antifungal activity against Bipolaris setariae infected finger millet seed assessed as fungal occurrence at 40 g/L after 1 week by stereoscopic analysis (reference value: 18 +/- 0.40%)
# Eleusine coracana [7] = assay: Induction of seed germination in Eleusine coracana (finger mellet) at 1 g/L (reference value: 81 +/- 0.40%)
# Bipolaris setariae [8] = assay: Antifungal activity against Bipolaris setariae infected finger millet seed assessed as fungal occurrence at 20 g/L after 1 week by stereoscopic analysis (reference value: 18 +/- 0.40%)
# Pyricularia grisea [9] = assay: Antifungal activity against Magnaporthe grisea infected finger millet seed assessed as fungal occurrence at 40 g/L after 1 week by stereoscopic analysis (reference value: 12.5 +/- 0.35%)
# Pyricularia grisea [10] = assay: Antifungal activity against Magnaporthe grisea infected finger millet seed assessed as fungal occurrence at 20 g/L after 1 week by stereoscopic analysis (reference value: 12.5 +/- 0.35%)
# Eleusine coracana [11] = assay: Induction of seed germination in Eleusine coracana (finger mellet) at 40 g/L (reference value: 81 +/- 0.40%)
# Bipolaris setariae [12] = assay: Antifungal activity against Bipolaris setariae infected finger millet seed assessed as fungal occurrence at 10 g/L after 1 week by stereoscopic analysis (reference value: 18 +/- 0.40%)
# Bipolaris setariae [13] = assay: Antifungal activity against Bipolaris setariae infected finger millet seed assessed as fungal occurrence at 1 g/L after 1 week by stereoscopic analysis (reference value: 18 +/- 0.40%)
# Eleusine coracana [14] = assay: Phytostimulatory activity in Eleusine coracana (finger mellet) seedlings assessed as vigour index at 20 g/L (reference value: 567 +/- 0.5 no unit)
# Eleusine coracana [15] = assay: Phytostimulatory activity in Eleusine coracana (finger mellet) seedlings assessed as vigour index at 10 g/L (reference value: 567 +/- 0.5 no unit)
# Eleusine coracana [16] = assay: Phytostimulatory activity in Eleusine coracana (finger mellet) seedlings assessed as vigour index at 1 g/L (reference value: 567 +/- 0.5 no unit)
SMILES,Vigour_index (Eleusine coracana [1]),Activity (Pyricularia grisea [2]),Activity (Eleusine coracana [3]),Activity (Eleusine coracana [4]),Activity (Pyricularia grisea [5]),Activity (Bipolaris setariae [6]),Activity (Eleusine coracana [7]),Activity (Bipolaris setariae [8]),Activity (Pyricularia grisea [9]),Activity (Pyricularia grisea [10]),Activity (Eleusine coracana [11]),Activity (Bipolaris setariae [12]),Activity (Bipolaris setariae [13]),Vigour_index (Eleusine coracana [14]),Vigour_index (Eleusine coracana [15]),Vigour_index (Eleusine coracana [16])
O=C(c1ccccc1)c1cc(Cl)ccc1OCc1nnc(N2C(=O)C(Cl)C2c2cccc(Br)c2)o1 (stereo unspecified),641,6%,83%,83%,5%,6%,81%,7%,3%,4%,86%,10%,11%,620,585,544
Cc1ccc(C(=O)c2cc(C)ccc2OCc2nnc(N3C(=O)C(Cl)C3c3cccc(Br)c3)o2)cc1 (stereo unspecified),659,4%,86%,82%,4%,1.5%,80%,2.5%,1%,1.5%,83%,6%,14%,680,633,594
Cc1ccc(OCc2nnc(N3C(=O)C(Cl)C3c3cccc(Br)c3)o2)c(C(=O)c2ccc(Cl)cc2)c1 (stereo unspecified),693,4%,85%,85%,3%,4.5%,81%,5%,2%,3%,87%,9%,11%,645,611,588
Cc1ccc(OCc2nnc(N3C(=O)C(Cl)C3c3cccc(Br)c3)o2)c(C(=O)c2cccc(Cl)c2)c1 (stereo unspecified),630,5%,82%,80%,3.5%,6%,80%,2.5%,4.5%,4.5%,80%,4.5%,3.5%,639,590,581
O=C(c1ccccc1)c1ccc(Br)cc1OCc1nnc(N2C(=O)C(Cl)C2c2cccc(Br)c2)o1 (stereo unspecified),663,4%,86%,86%,3.5%,2.5%,81%,3.5%,2.5%,3.5%,83%,4.5%,13.5%,655,615,572
COc1ccc(C(=O)c2cc(C)ccc2OCc2nnc(N3C(=O)C(Cl)C3c3cccc(Br)c3)o2)cc1 (stereo unspecified),688,3.5%,90%,88%,2.5%,2%,85%,2%,1%,1%,84%,2.5%,3.5%,706,658,626
O=C(c1cccc(Cl)c1)c1cc(Cl)ccc1OCc1nnc(N2C(=O)C(Cl)C2c2cccc(Br)c2)o1 (stereo unspecified),700,2%,89%,86%,1%,0.5%,85%,0.5%,0.5%,0.5%,90%,2%,2.5%,711,668,622
Cc1cc(OCc2nnc(N3C(=O)C(Cl)C3c3cccc(Br)c3)o2)c(C(=O)c2ccccc2)cc1Cl (stereo unspecified),656,3%,89%,86%,2%,2%,86%,2%,0%,1%,82%,1%,2%,715,677,661
Cc1ccc(OCc2nnc(N3C(=O)C(Cl)C3c3cccc(Br)c3)o2)c(C(=O)c2ccccc2Cl)c1 (stereo unspecified),692,3.5%,86%,84%,3%,2%,82%,2%,1%,2%,89%,3.5%,4%,754,674,645
Cc1ccc(OCc2nnc(N3C(=O)C(Cl)C3c3cccc(Br)c3)o2)c(C(=O)c2ccccc2)c1 (stereo unspecified),620,12%,84%,81%,3.5%,1%,80%,4.5%,2%,2.5%,86%,6%,15%,589,569,565
COC(=O)Nc1nc2ccccc2[nH]1 [CARBENDAZIM],621,1.5%,85%,84%,1.5%,2%,82%,2%,1%,1%,87%,3%,3%,612,579,567
